Patent publication US8470787B2, “Hydrates of erythromycin salts, preparation and use thereof” (priority 2008, dated 2013)
Read-outs that look alike come from different tables or passages of the source.

How the values were obtained:
[1] = test system: Escherichia coli; assay: antibacterial activity, tube double dilution method, clinically obtained bacteria; type: cell-based; conditions: 21 strains
[2] = test system: Streptococcus viridan; assay: as above; type: cell-based; conditions: 23 strains
[3] = test system: Staphylococcus epidermidis; assay: as above; type: cell-based; conditions: 21 strains
[4] = test system: Bacillus influenzae; assay: as above; type: cell-based; conditions: for MIC50 / MIC90: 17 strains; for MIC: range over 17 strains
Description: (§1) The antibacterial activities of the hydrates of erythromycin salts are determined by culturing clinically obtained bacteria and measuring in accordance with pharmacological test methods (the tube double dilution method), and the results are shown in the following tables 9, 10, 11 and 12.

[5] = test system: Neisseria gonorrhoeae; assay: as above; type: cell-based; conditions: for MIC50 / MIC90: 16 strains; for MIC: range over 16 strains
Description: as §1

[6] = test system: Pneumococcus; assay: as above; type: cell-based; conditions: for MIC50 / MIC90: 18 strains; for MIC: range over 18 strains
Description: as §1

[7] = test system: Bacillus fragilis; assay: as above; type: cell-based; conditions: for MIC50 / MIC90: 15 strains; for MIC: range over 15 strains
Description: as §1

[8] = test system: Propionibacterium; assay: as above; type: cell-based; conditions: for MIC50 / MIC90: 18 strains; for MIC: range over 18 strains
Description: as §1

[9] = test system: Streptococcus hemolyticus; assay: as above; type: cell-based; conditions: for MIC50 / MIC90: 16 strains; for MIC: range over 16 strains
Description: as §1

[10] = accelerated stability test (sealed vial, 30° C., HPLC content and related substances); type: physicochemical
Description: The hydrates of erythromycin salts according to the present invention can be stably stored. A sample of the above hydrates was sealed in a vial, and an accelerated stability test was conducted at 30° C. and changes of the content and related substances were measured by a HPLC method (C18 reverse phase column, 0.01M KH2PO4-acetonitrile (60:40) as the mobile phase, detective wavelength: 215 nm, column temperature: 35° C., flow rate: 1.0 ml/min) (upon different hydrates of erythromycin salts, such as crystalline hydrates of erythromycin thiocyanate, the pH of the mobile phase can be adjusted and KH2PO4 can be changed into NaH2PO4, the detective wavelength can be changed into 210 nm, and the column temperature can be set at 35-55° C., such as 50° C. for analysis and measurement). […] As compared to the anhydrous of erythromycin salt, the hydrates of erythromycin salts according to the present invention have a lower hygroscopicity, i.e., has a better stability of hygroscopicity, which facilitates the package and storage thereof, or is a more advantageously stable form for storage relative to the anhydrous.

[11] = test system: Staphylococcus aureus; assay: antibacterial activity, tube double dilution method, clinically obtained bacteria; type: cell-based; conditions: 26 strains
[12] = test system: Anaerobe; assay: as above; type: cell-based
Description: as §1

[13] = hygroscopic test according to China Pharmacopeia CP2005; type: physicochemical; conditions: RH 75%, 25° C., 48 h

## CC[C@H]1OC(=O)[C@H](C)[C@@H](O[C@H]2C[C@@](C)(OC)[C@@H](O)[C@H](C)O2)[C@H](C)[C@@H](O[C@@H]2O[C@H](C)C[C@H](N(C)C)[C@H]2O)[C@](C)(O)C[C@@H](C)C(=O)[C@H](C)[C@@H](O)[C@]1(C)O [erythromycin lactobionate trihydrate]
[1]; Escherichia coli, read-out: MIC50
  MIC50: 4 mg/L
[2]; Streptococcus, read-out: MIC50
  MIC50: 0.06 mg/L
[2]; Streptococcus, read-out: MIC90
  MIC90: 0.5 mg/L
[3]; Staphylococcus epidermidis, read-out: MIC50
  MIC50: 16 mg/L
[4]; Bacillus, read-out: MIC50
  MIC50: 4 mg/L
[4]; Bacillus, read-out: MIC90
  MIC90: 8 mg/L
[4]; Bacillus, read-out: MIC
  MIC: 0.12 to 8 mg/L
[5]; Neisseria gonorrhoeae, read-out: MIC50
  MIC50: 0.25 mg/L
[5]; Neisseria gonorrhoeae, read-out: MIC90
  MIC90: 1 mg/L
[5]; Neisseria gonorrhoeae, read-out: MIC
  MIC: 0.06 to 2 mg/L
[6]; read-out: MIC50
  MIC50: 0.06 mg/L
[6]; read-out: MIC90
  MIC90: 1 mg/L
[6]; read-out: MIC
  MIC: 0.03 to 0.5 mg/L
[7]; Bacillus, read-out: MIC50
  MIC50: 4 mg/L
[7]; Bacillus, read-out: MIC90
  MIC90: 16 mg/L
[7]; Bacillus, read-out: MIC
  MIC: 0.5 to 64 mg/L
[8]; Propionibacterium, read-out: MIC50
  MIC50: 0.06 mg/L
[8]; Propionibacterium, read-out: MIC90
  MIC90: 0.12 mg/L
[8]; Propionibacterium, read-out: MIC
  MIC: 0.03 to 16 mg/L
[9]; Streptococcus pyogenes, read-out: MIC50
  MIC50: 0.06 mg/L
[9]; Streptococcus pyogenes, read-out: MIC90
  MIC90: 32 mg/L
[9]
  MIC: 0.03 to 32 mg/L
[10]; month 0
  Assay (%): 99.9%
  Form: off-white powder
[10]; month 1
  Assay (%): 100.2%
  Form: off-white powder
[10]; month 2
  Assay (%): 99.8%
  Form: off-white powder
[10]; month 3
  Assay (%): 100.1%
  Form: off-white powder
[10]; month 6
  Assay (%): 99.9%
  Form: off-white powder
[11]; Staphylococcus aureus, read-out: MIC50
  MIC50: 0.12 mg/L

## CC[C@H]1OC(=O)[C@H](C)[C@@H](O[C@H]2C[C@@](C)(OC)[C@@H](O)[C@H](C)O2)[C@H](C)[C@@H](O[C@@H]2O[C@H](C)C[C@H](N(C)C)[C@H]2O)[C@](C)(O)C[C@@H](C)C(=O)[C@H](C)[C@@H](O)[C@]1(C)O.N#CS.O.O [erythromycin thiocyanate dihydrate]
[1]
  MIC50: 4 mg/L
[2]
  MIC50: 0.06 mg/L
  MIC90: 0.5 mg/L
[3]
  MIC50: 16 mg/L
[4]
  MIC50: 4 mg/L
  MIC90: 8 mg/L
  MIC: 0.12 to 8 mg/L
[5]
  MIC50: 0.25 mg/L
  MIC90: 1 mg/L
  MIC: 0.06 to 2 mg/L
[6]
  MIC50: 0.06 mg/L
  MIC90: 1 mg/L
  MIC: 0.03 to 0.5 mg/L
[7]
  MIC50: 4 mg/L
  MIC90: 16 mg/L
  MIC: 0.5 to 64 mg/L
[8]
  MIC50: 0.06 mg/L
  MIC90: 0.12 mg/L
  MIC: 0.03 to 16 mg/L
[12]; 16 strains
  MIC50: 2 mg/L
  MIC90: 16 mg/L
[12]; range over 16 strains
  MIC: 0.06 to 64 mg/L
[9]
  MIC50: 0.06 mg/L
  MIC90: 32 mg/L
  MIC: 0.03 to 32 mg/L
[10]; month 0
  Assay (%): 99.9%
  Form: off-white powder
[10]; month 1
  Assay (%): 99.9%
  Form: off-white powder
[10]; month 2
  Assay (%): 100.4%
  Form: off-white powder
[10]; month 3
  Assay (%): 100.2%
  Form: off-white powder
[10]; month 6
  Assay (%): 99.8%
  Form: off-white powder
[11]
  MIC50: 0.12 mg/L

## CC[C@H]1OC(=O)[C@H](C)[C@@H](O[C@H]2C[C@@](C)(OC)[C@@H](O)[C@H](C)O2)[C@H](C)[C@@H](O[C@@H]2O[C@H](C)C[C@H](N(C)C)[C@H]2O)[C@](C)(O)C[C@@H](C)C(=O)[C@H](C)[C@@H](O)[C@]1(C)O.N#CS.O.O.O [erythromycin thiocyanate trihydrate]
[10]; month 0
  Assay (%): 99.8%
  Form: off-white powder
[10]; month 1
  Assay (%): 99.9%
  Form: off-white powder
[10]; month 2
  Assay (%): 100.6%
  Form: off-white powder
[10]; month 3
  Assay (%): 100.3%
  Form: off-white powder
[10]; month 6
  Assay (%): 100.1%
  Form: off-white powder

## erythromycin thiocyanate hemitri(1.5)hydrate
[13]
  Hygroscopic weight gain %, relative to 0 h: 3.12%
[10]; month 0
  Assay (%): 99.9%
  Form: off-white powder
[10]; month 1
  Assay (%): 100.3%
  Form: off-white powder
[10]; month 2
  Assay (%): 100.5%
  Form: off-white powder
[10]; month 3
  Assay (%): 100.1%
  Form: off-white powder
[10]; month 6
  Assay (%): 100.2%
  Form: off-white powder
